Reference: US11969417B2, “Topical formulation for use in alopecia” (TOMORROWLABS GMBH, priority 2019, dated 2024)
Entries after “also recorded” stand apart in the source; their conditions may differ.

Test system: dermal papilla cell (DP)
Test: 3D spheroid (hanging drop) culture model of dermal papilla cells
Assay type: cell-based
Conditions: 3D spheroid culture
Description: FIG. 1: 3D hanging drop culture of DPCs. […] After spheroid formation is complete, the samples are transferred into a 96 well plate for further cultivation and drug exposure. […] (A) Representative images of spheroids stained for newly synthesized cells were taken after drug exposure for 12 hours (left column) and 24 hours (right column) respectively. Scale bars: 200 μm.

In the case of `Cc1c(O)c(=O)ccn1C` [Deferiprone, 3-hydroxy-1,2-dimethylpyridin-4(1H)-one], the “DP cell migration (radius of migration around the spheroids)” value (after 24 hours) is reported as “without impeding; also recorded: unchanged” and the “DP cell proliferation (synthesis of new daughter cells)” value (drug exposure for 12 hours and 24 hours) is reported as “significantly increases; also recorded: significantly enhanced”.
